Measured values reported in article PMC5652740, “Inhibition of HIV-1 infection in humanized mice and metabolic stability of protein phosphatase-1-targeting small molecule 1E7-03” (Oncotarget, 2017).

How the values were obtained:
[1] = 1E7-03 degradation in guinea pig plasma; assay type: in vitro ADME; settings: 10 μM, 37°C, 4 hrs
Description: 1E7-03 dissolved in DMSO (10 mM stock solution) was mixed with mouse plasma (Sigma-Aldrich), guinea pig plasma (Sigma-Aldrich), ferret plasma (BioreclamationIVT), monkey plasma (courtesy of Binhua Ling, PhD, Tulane University) and human plasma (collected from heathy volunteer by the Center for Sickle Cell Disease at Howard University) to the final concentration of 10 μM and incubated at 37°C. Aliquots were collected at different time points for up to 24 hrs. The resulting sample (60 μl) was mixed with 240 μl of cold acetone, vortexed for 2 min, kept at –20°C for 30 min, and then the precipitated protein was removed by centrifugation at 13,000 × g for 5 min. The supernatant was transferred to a clean test tube and evaporated to dryness using a SpeedVac concentrator. The residue reconstituted in 60 μl of acetonitrile for LC/FT-MS analysis. All experiments were run parallel in triplicates.

[2] = Pharmacokinetic analysis in mice after i.p. injection; assay type: in vivo; settings: male, BALB/cJ, ip
Description: The animal facilities and protocols were approved by Howard University Institutional Animal Care and Use Committee (IACUC). All experimental procedures were in accordance with the NIH Guidelines for the Care and Use of Laboratory Animals. BALB/cJ male mice (8 weeks old, 25–30 g) were purchased from Jackson Laboratory (Bar Harbor, ME, USA) and housed under pathogen-free conditions in HEPA-filtered cages and kept on a 12 h light/dark cycle. Compounds were administered to mice via intraperitoneal (i.p.) injection with maximum achievable doses of 30 mg/kg 1E7-03 (100 μl injection of 8 mM 1E7-03 in 80% DMSO/20% saline) and 100 mg/kg DP1-07 (100 μl injection of 100 mM DP1-07 in 40% propylene glycol/10% DMSO/50% saline). Blood samples were collected at different time points (15 min, 30 min, 1 hr, 3 hr, 6 hrs and 24 hrs) for each group (n=3 mice per group). For each sample, 20 μl of plasma was mixed with 80 μl cold acetone, and centrifuged at 13,000 rpm for 5 min. The supernatant was transferred to a clean test tube and dried in a SpeedVac concentrator. The residue was re-constituted in 50 μl of acetonitrile for LC-MS analysis. Calibration curves were prepared by spiking 1E7-03, DP1, DP3 and DP1-07 into the drug-free mouse plasma and subjected to similar sample extraction procedures. The plasma concentration–time profile of each analyte was constructed and pharmacokinetic parameters were determined by non-compartmental method using Phoenix WinNonlin Version 5.3 (Pharsight Corporation, Mountain View, CA).
A 10 μl aliquots from each sample were loaded to a LC-20AD nano HPLC system (Shimadzu Corporation, Columbia, MD, USA) coupled to LTQ XL Orbitrap mass spectrometer (Thermo Fisher Scientific) with the installed Xcalibur software (version 2.0.7, Thermo Fisher Scientific). Liquid chromatography was carried out on an in-house made nano-HPLC column (Polymicro Technologies Inc., Phoenix, AZ, USA) packed with reverse phase PolySulfoethyl A, 5μM, 200 Å (PolyLC Inc., Columbia, MD, USA). Mobile phase A was 0.1% formic acid in water and mobile phase B - 0.1% formic acid in acetonitrile. The elution was performed at a flow rate of 600 nl/min over 40 min using a multisegment linear gradient of mobile phase B as follows: 0–6.02 min, 1% B; 6.02–6.11 min, 1–2% B; 6.11–20 min, 2−80% B; 20–25 min, 80% B; 25–30 min, 80–85% B; 30–31 min, […]; 31–40 min, 2% B (v/v). The Orbitrap was operated under data-dependent acquisition mode. The spray voltage, capillary temperature and capillary voltage were set to 2.0 kV, 200 °C, and 39.5 V, respectively. Full-scan mass spectra were acquired in Orbitrap over 150−1500 m/z with a resolution of 30 000, followed by MS^n scans by CID activation mode. The precursor ions were fragmented with collision energy of 18 with activation Q of 0.25 and an activation time of 30 ms. Dynamic exclusion was enabled with a repeat count of 2, a repeat duration of 15 s, exclusion duration of 20 s, an exclusion list size of 50. The mass spectrometer was also operated in NL scan of m/z 18.01, 45.05, 71.03 and 72.02 and MRM mode. The MRM transitions were controlled by a segmented program in order to short the scan cycle and increase sensitivity.

HIV-1 89.6 = test: Antiviral efficacy in HIV-1 89.6-infected humanized NSG mice; assay type: in vivo; settings: 48 hrs
Description: NOD.Cg-Prkdcscid Il2rgtm1Wjl/SzJ (NSG) mice initially purchased from Jackson Laboratories were bred and maintained in the Animal Core Facility at George Mason University (Manassas, VA). NSG mice were generated by i.p. injection of cryopreserved human CD34+ hematopoietic stem progenitor cells (HSPC) (500,000 cells per mouse) isolated from the autologous fetal liver. Anesthetized mice were inoculated by direct injection 16 weeks after implantation with 50 μl of HIV-1 89.6 (1,000 TCID50) or RPMI 1640 medium (mock infection). […] Blood was collected by tail vein after 48 hrs and transferred into microcentrifuge tubes containing 330 mM EDTA. Each data point represents the blood from a single animal. Plasma was removed after low-speed centrifugation for 5 min at room temperature and stored at -80°C. Viral RNA was extracted from plasma using the QIAamp Viral RNA Mini Kit (Qiagen). For quantitative analysis of HIV-1 RNA, total RNA was isolated from blood specimens of HIV-1-infected humanized mice. RNA was isolated using Trizol Reagent (Invitrogen, Carlsbad, CA) according to the manufacturer's protocol. A total of 1.0 μg of RNA was treated with 0.25 mg/ml DNase I RNase-free (Roche, Mannheim, Germany) for 60 min in the presence of 5 mM MgCl2, followed by heat inactivation at 65 °C for 15 min. A 200–250 ng aliquot of total RNA was used to generate cDNA with the GoScript Reverse Transcription System (Promega, Madison, WI) using TAR-specific reverse primer TAR+59R: 5′- […] -3′. Subsequent quantitative real-time PCR analysis was performed with 2 μl of undiluted RT reaction mixes. The iQ Supermix (Bio-Rad, Hercules, CA) was used with the primers specific for (1) HIV-1 TAR: TARfll-F: 5′-[…]-3′ and TAR+59R as above; (2) HIV-1 TAR-gag: Gag 1625R: 5’- […] -3’ and TAR+59R as above. Real-time PCR reactions were carried out in triplicate.

[3] = mouse plasma after i.p. 30 mg/kg 1E7-03, parent and its metabolites DP1, DP3, mean, n=3
[4] = mouse plasma after i.p. 30 mg/kg 1E7-03, parent and metabolites DP1, DP3
[5] = mouse, plasma, 30 mg/kg, mouse plasma after i.p. 30 mg/kg 1E7-03, parent and metabolites DP1, DP3
[6] = mouse plasma after i.p. 100 mg/kg DP1-07, parent and products DP1-07P1, DP1-07P2

Compound | % of compound degraded [1] | Cmax [2, 3] [µM] | AUC(0-t) [2, 4] [µM·h] | MRT last [2, 4] [h] | half-life [2, 4] [h] | Tmax [2, 5] [h] | fold reduction of HIV TAR RNA (HIV-1 89.6; single i.p. dose, 1E7-03 3 mg/kg, F07#13 […], vs untreated mice, Figure 6A) [fold] | fold reduction of HIV TAR-gag RNA (HIV-1 89.6; single i.p. dose, 1E7-03 3 mg/kg, F07#13 […], vs untreated mice, Figure 6B) [fold] | AUC(0-t) [2, 6] [µM·h] | MRT last [2, 6] [h] | half-life [2, 6] [h] | Cmax ([2]; mouse plasma after i.p. 100 mg/kg DP1-07, parent and products DP1-07P1, DP1-07P2 (quantified with DP1 and DP3 calibration curves)) [µM] | Tmax ([2]; mouse, plasma, 100 mg/kg, mouse plasma after i.p. 100 mg/kg DP1-07, parent and products DP1-07P1, DP1-07P2) [h] | concentration at 24 h ([2]; mouse, plasma, i.p. 100 mg/kg DP1-07, 24 hrs, read-out: concentration present in murine blood 24 hrs post-injection) [µM] | fold reduction of HIV TAR RNA (HIV-1 89.6; single i.p. dose 3 mg/kg, Figure 7G) [fold]
CCNC(=O)NC(=O)C(C)OC(=O)c1c2c(nc3ccccc13)/C(=C/c1ccc(OC)c(OC)c1)CC2 (stereo not shown) [1E7-03] | about 80% | 3.43 | 12.2 | 2.4 | 3.39 | 0.5 | > 40 | > 39 |  |  |  |  |  |  | 
COc1ccc(/C=C2\CCc3c2nc2ccccc2c3C(=O)OC(C)C(=O)O)cc1OC (stereo not shown) [DP1] |  | 9.09 | 124 | 4.98 | 3.2 | 3 |  |  |  |  |  |  |  |  | 
COc1ccc(/C=C2\CCc3c2nc2ccccc2c3C(=O)O)cc1OC [DP3] |  | 3.61 | 30.7 | 4.39 | 2.44 | 1 |  |  |  |  |  |  |  |  | 
COc1ccc(/C=C2\CCCc3c2nc2ccccc2c3C(=O)OC(C)C(=O)OC(C)(C)C)cc1OC (stereo not shown) [DP1-07] |  |  |  |  |  |  |  |  | 706 | 10.7 | 14.3 | 42.7 | ~6 | 18 | 3.8
